Measurements as given in ChEMBL document CHEMBL1201862, “PubChem BioAssay data set” (2004).
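48-hour exposure; five concentrations; linearly interpolated endpoints. GI50 marks 50% less growth.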 Calls of active or inactive are those of the source. No stated cut-off is given here; in the data, active = GI50 up to about 1.1 µM and inactive = higher. Where a SMILES comes first, the peptide text is derived from it. [ ]: non-standard residue; d: D form. The star is where a group is joined. NMeF = CN[CH](Cc1ccccc1)C(=O)O; NMeV = CN[CH](C(=O)O)C(C)C; Boc = CC(C)(C)OC(=O)*; OBn = c1ccc(CO*)cc1

How the values were obtained:
Assay in all cases: inhibition of tumour cell growth, NCI panel, 48 h
RXF 393 = test system: RXF 393
COLO 205 = test system: COLO 205
SF-295 = test system: SF-295
SNB-19 = test system: SNB-19
SF-268 = test system: SF-268
HL-60 = test system: HL-60
786-0 = test system: 786-0
KM12 = test system: KM12
SNB-75 = test system: SNB-75
NCI-H460 = test system: NCI-H460
OVCAR-5 = test system: OVCAR-5
Malme-3M = test system: Malme-3M
HCT-15 = test system: HCT-15

Row | SMILES | GI50 (RXF 393) | GI50 (COLO 205) | GI50 (SF-295) | GI50 (SNB-19) | GI50 (SF-268) | GI50 (HL-60) | GI50 (786-0) | GI50 (KM12) | GI50 (SNB-75) | GI50 (NCI-H460) | GI50 (OVCAR-5) | GI50 (Malme-3M) | GI50 (HCT-15) [µM]
1 | C[C@H]1CC(=O)C2=CCCC3(SCCCS3)[C@@H]2[C@H]1CO | > 100 µM (inactive) | > 100 µM (inactive) | > 100 µM (inactive) | > 100 µM (inactive) | > 100 µM (inactive) | 27.1 µM (inactive) | > 100 µM (inactive) | > 100 µM (inactive) | > 100 µM (inactive) | > 100 µM (inactive) | > 100 µM (inactive) | > 100 µM (inactive) | 
2 | COc1ccc(NC(=O)CC2SC(Nc3ccc(Cl)cc3C)=NC2=O)c([N+](=O)[O-])c1 (configuration not stated) | > 100 µM (inactive) |  | > 100 µM (inactive) | > 100 µM (inactive) | > 100 µM (inactive) | > 100 µM (inactive) | > 100 µM (inactive) |  | > 100 µM (inactive) | > 100 µM (inactive) | > 100 µM (inactive) | > 100 µM (inactive) | > 100
3 | O=P1(Oc2ccccc2)C(c2ccccc2)C(c2ccccc2)=NN1c1ccccc1 (configuration not stated) | 24.2 µM (inactive) | 18.9 µM (inactive) | 28.2 µM (inactive) | 34.9 µM (inactive) | 29.4 µM (inactive) | 15.8 µM (inactive) | 33.7 µM (inactive) | 25.8 µM (inactive) | 30 µM (inactive) | 24.2 µM (inactive) | 25.4 µM (inactive) | 43.7 µM (inactive) | 19.6
4 | CC(C)OP(=O)(OC(C)C)/C(=N/Nc1ccccc1[N+](=O)[O-])NCCN/C(=N\Nc1ccccc1[N+](=O)[O-])P(=O)(OC(C)C)OC(C)C |  | 25.2 µM (inactive) |  | 38 µM (inactive) | 67.1 µM (inactive) | 23.7 µM (inactive) | 33 µM (inactive) | 40.3 µM (inactive) | 89.3 µM (inactive) | > 10 µM (inactive) | 24.2 µM (inactive) | 23.1 µM (inactive) | 30.3
5 | Cc1cn(C2OC(C)(CO)C(O)C2O)c(=O)[nH]c1=O (configuration not stated) | > 100 µM (inactive) | > 100 µM (inactive) | > 100 µM (inactive) | > 100 µM (inactive) | > 100 µM (inactive) | > 10 µM (inactive) | > 100 µM (inactive) | > 100 µM (inactive) | > 100 µM (inactive) | > 100 µM (inactive) | > 100 µM (inactive) | > 100 µM (inactive) | > 100
6 | O=C(OC1CCC(=C2SCCCS2)[C@H]1C1SCCCS1)c1ccccc1 (some centres not stated) | 67.1 µM (inactive) | > 100 µM (inactive) | > 100 µM (inactive) | > 100 µM (inactive) |  | 52.7 µM (inactive) | > 100 µM (inactive) | > 100 µM (inactive) |  | > 100 µM (inactive) |  | 94.6 µM (inactive) | > 100
7 | N=C(N)NS(=O)(=O)c1ccc(NC(=O)c2ccc(Cl)c3c(Nc4ccc(S(=O)(=O)N=C(N)N)cc4)c4ccccc4nc23)cc1 | > 100 µM (inactive) | 91.4 µM (inactive) | > 100 µM (inactive) | 53.3 µM (inactive) | > 100 µM (inactive) | 41.3 µM (inactive) | > 100 µM (inactive) | 24.5 µM (inactive) | 24.5 µM (inactive) | > 100 µM (inactive) | > 100 µM (inactive) | > 100 µM (inactive) | > 100
8 | [O-][n+]1c2c([n+]([O-])c3ccccc31)CCCCCCCCCC2 |  |  | > 100 µM (inactive) | > 100 µM (inactive) | > 100 µM (inactive) | 44.1 µM (inactive) | > 100 µM (inactive) | > 100 µM (inactive) | > 100 µM (inactive) |  |  | > 100 µM (inactive) | > 100
9 | O=Cc1ccccc1COC(=O)c1cc(C(=O)OCc2ccccc2C=O)c(C(=O)OCc2ccccc2C=O)cc1C(=O)OCc1ccccc1C=O | 31.3 µM (inactive) | > 100 µM (inactive) | 64.6 µM (inactive) | > 100 µM (inactive) | 69.2 µM (inactive) | 38.2 µM (inactive) | 23.6 µM (inactive) | > 100 µM (inactive) | 21.5 µM (inactive) | > 100 µM (inactive) | > 100 µM (inactive) | > 100 µM (inactive) | > 100
10 | COC1=C2C[C@H](O)C(C)C[C@@]2(OC)OC1=O (some centres not stated) | > 100 µM (inactive) | > 100 µM (inactive) | > 100 µM (inactive) | > 100 µM (inactive) | > 100 µM (inactive) | > 100 µM (inactive) | > 100 µM (inactive) | > 100 µM (inactive) | > 100 µM (inactive) | > 100 µM (inactive) |  | > 100 µM (inactive) | > 100
11 | O=c1ncccn1C1OC(CO)C(O)C1O (configuration not stated) | > 100 µM (inactive) | > 100 µM (inactive) |  | 91.8 µM (inactive) | > 100 µM (inactive) |  | > 100 µM (inactive) | > 100 µM (inactive) | > 100 µM (inactive) | > 100 µM (inactive) | > 100 µM (inactive) | > 100 µM (inactive) | > 100
12 | O=C1C2c3[nH]c4ccccc4c3C3CCCCC3C2C(=O)N1c1ccccc1 (configuration not stated) | 19.6 µM (inactive) | > 100 µM (inactive) | 48.9 µM (inactive) | 84.1 µM (inactive) | 72.9 µM (inactive) | > 100 µM (inactive) | 34.2 µM (inactive) | > 100 µM (inactive) | 11.3 µM (inactive) | > 100 µM (inactive) | > 100 µM (inactive) | > 100 µM (inactive) | > 100
13 | O=c1c2c(c1=O)-c1ccccc1CN2 | > 100 µM (inactive) | > 100 µM (inactive) |  | > 100 µM (inactive) | > 100 µM (inactive) | > 100 µM (inactive) | > 100 µM (inactive) | > 100 µM (inactive) | > 100 µM (inactive) | > 100 µM (inactive) | > 100 µM (inactive) | > 100 µM (inactive) | > 100
14 | CC(=O)O[C@]12CCCC1C1(O)C(O)CCCC12 (some centres not stated) | > 100 µM (inactive) | > 100 µM (inactive) | > 100 µM (inactive) | > 100 µM (inactive) | > 100 µM (inactive) | > 100 µM (inactive) | > 100 µM (inactive) | > 100 µM (inactive) | > 100 µM (inactive) | > 100 µM (inactive) |  | > 100 µM (inactive) | > 100
15 | O=C(O)c1ccc(C2C3C=CC(C3)C2[N+](=O)[O-])cc1 (configuration not stated) | > 100 µM (inactive) | > 100 µM (inactive) | > 100 µM (inactive) | > 100 µM (inactive) | > 100 µM (inactive) | > 100 µM (inactive) | > 100 µM (inactive) | > 100 µM (inactive) | 91.2 µM (inactive) | > 100 µM (inactive) |  | > 100 µM (inactive) | > 100
16 | CC(C)C(NC(=O)OC(C)(C)C)C(=O)N(C)C(Cc1ccccc1)C(=O)N(C)C(C(=O)N(C)C(C(=O)OCc1ccccc1)C(C)C)C(C)C (configuration not stated) (Boc-V[NMeF][NMeV][NMeV]-OBn; configuration not given here) |  | > 100 µM (inactive) | 51.2 µM (inactive) | > 100 µM (inactive) | > 100 µM (inactive) | > 100 µM (inactive) | > 100 µM (inactive) | > 100 µM (inactive) |  | > 100 µM (inactive) |  | 24.8 µM (inactive) | > 100
